{"source": "patent US20100330126A1", "about": "“Attenuated malaria blood-stage vaccine” (priority 2009, published 2010)", "type_in_all_cases": "biochemical", "key": {"P. yoelii PNP": {"system": "P. yoelii PNP", "experiment": "Phosphorylase activity assay, kinetic constants of recombinant PyPNP", "settings": "for Km / kcat: substrate of P. yoelii PNP, 50 mM KPO4, pH 7.4", "excerpt": "Expression, Purification, and Characterization of PyPNP. Recombinant PyPNP was expressed with a C-terminal 6×His tag and the c-myc epitope and purified from induced bacterial culture by nickel affinity chromatography under native conditions. Like PfPNP, recombinant PyPNP elutes from gel filtration chromatography as a single peak consisting of homohexameric protein (≈180 kDa; data not shown). On a denatured SDS-PAGE gel, the protein ran as a single band with a molecular mass of 29.94 kDa. […] The catalytic efficiencies (kcat/Km) of PyPNP for these substrates were very similar to those observed in PfPNP (Table 2).\nCloning and Expression of P. yoelii PNP. PyPNP was identified as a protein of 244 amino acids and 26.943 kDa by protein sequence homology to PfPNP (gene PY04622; PlasmoDB.org). The PyPNP open reading frame (ORF) sequence was amplified by PCR from genomic DNA of P. yoelii strain YM with primers PyPNP-F (5′-[…]-3′) (SEQ ID NO:8) and PyPNP-R (5′-[…]-3′) (SEQ ID NO:9). The 729 by PCR product was ligated into a pTrcHis2-TOPO vector (Invitrogen) and expressed in E. coli strain TOP 10. Recombinant PyPNP with a C-terminal 6×His tag and the c-myc epitope was induced with 1 mM IPTG at 37° C. for 10 h and purified by nickel chromatography. The purified PyPNP was >95% homogeneous based on denaturing polyacrylamide gel electrophoresis and staining with Coomassie blue. Protein concentration was measured by Bradford protein assay (Bio-Rad).\n(§1) Enzymatic Assays and Determination of Kinetic Constants. All phosphorylase activity assays were performed with purified enzyme in 50 mM KPO4, pH 7.4 as described^1. Briefly, phosphorylysis of inosine, 2′-deoxyinosine, and 5′-methylthioinosine was measured in a coupled assay with 115 milliunits/ml xanthine oxidase to convert hypoxanthine into uric acid. Uric acid formation was followed by spectrophotometric measurement at 293 nm (E293=12.9 mM^−1 cm^−1). Phosphorylysis of guanosine to guanine was monitored by measuring the disappearance of guanosine at 258 nm (E258=5.2 mM^−1 cm^−1). Adenosine and 5′-methylthioadenosine phosphorylase activities were measured by following the disappearance of the substrate at 265 nm (E256=1.9 mM^−1 cm^−1). Uridine phosphorylase activity was measured by following the conversion of uridine to uracil at 272 nm (E260=2.9 mM^−1 cm^−1). The Michaelis constant Km was determined as the substrate concentration at ½ the maximum velocity. The kcat was determined for each substrate by fits of substrate saturation data to the Michaelis-Menten equation. Values for kcat assume one catalytic site per subunit and are expressed as moles of product per second per mole of subunit."}, "P. falciparum PNP": {"molecular_target": "T1, P. falciparum PNP (Plasmodium falciparum, UniProt Q8I3X4)", "T1 sequence (Q8I3X4 1-245)": "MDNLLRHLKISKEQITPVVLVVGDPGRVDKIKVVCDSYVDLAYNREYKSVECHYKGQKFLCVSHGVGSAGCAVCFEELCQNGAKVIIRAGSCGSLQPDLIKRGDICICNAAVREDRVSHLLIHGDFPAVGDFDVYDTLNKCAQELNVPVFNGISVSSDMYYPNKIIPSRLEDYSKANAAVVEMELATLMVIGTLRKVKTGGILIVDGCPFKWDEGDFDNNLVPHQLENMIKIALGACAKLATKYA", "experiment": "Phosphorylase activity assay, kinetic constants of PfPNP", "settings": "substrate of P. falciparum PNP", "method": "as §1"}, "[1]": {"substrate": "Nc1nc2c(ncn2[C@@H]2O[C@H](CO)[C@@H](O)[C@H]2O)c(=O)[nH]1", "experiment": "Phosphorylase activity assay, kinetic constants of PfPNP", "settings": "other: substrate of P. falciparum PNP; pH 7.4", "method": "as §1"}, "[2]": {"substrate": "OC[C@H]1O[C@@H](n2cnc3c(O)ncnc32)C[C@@H]1O", "experiment": "Phosphorylase activity assay, kinetic constants of PfPNP", "settings": "other: substrate of P. falciparum PNP; pH 7.4", "method": "as §1"}, "[3]": {"substrate": "OC[C@H]1O[C@@H](n2cnc3c(O)ncnc32)[C@H](O)[C@@H]1O", "experiment": "Phosphorylase activity assay, kinetic constants of PfPNP", "settings": "other: substrate of P. falciparum PNP; pH 7.4", "method": "as §1"}}, "data": [{"molecule": "OC[C@H]1O[C@@H](n2cnc3c(O)ncnc32)C[C@@H]1O", "note": "[2′-deoxyinosine]", "values": [{"measurement": "Km", "setting": "P. yoelii PNP", "result": "79 ± 10", "unit": "µM"}, {"measurement": "kcat", "setting": "P. yoelii PNP", "result": "1.2 ± 0.1", "unit": "s⁻¹"}]}, {"molecule": "Nc1nc2c(ncn2[C@@H]2O[C@H](CO)[C@@H](O)[C@H]2O)c(=O)[nH]1", "note": "[Guanosine]", "values": [{"measurement": "Km", "setting": "P. yoelii PNP", "result": "8.9 ± 1.6", "unit": "µM"}, {"measurement": "kcat", "setting": "P. yoelii PNP", "result": "3.8 ± 0.2", "unit": "s⁻¹"}]}, {"molecule": "OC[C@H]1O[C@@H](n2cnc3c(O)ncnc32)[C@H](O)[C@@H]1O", "note": "[Inosine]", "values": [{"measurement": "Km", "setting": "P. yoelii PNP", "result": "8.6 ± 1.5", "unit": "µM"}, {"measurement": "kcat", "setting": "P. yoelii PNP", "result": "3.5 ± 0.1", "unit": "s⁻¹"}]}, {"molecule": "CSc1ncnc2c1ncn2[C@@H]1O[C@H](CO)[C@@H](O)[C@H]1O", "note": "[Methylthioinosine]", "values": [{"measurement": "Km", "setting": "P. yoelii PNP", "result": "5 ± 0.4", "unit": "µM"}, {"measurement": "kcat", "setting": "P. yoelii PNP", "result": "3.4 ± 0.1", "unit": "s⁻¹"}, {"measurement": "Km", "setting": "P. falciparum PNP", "result": "10.8 ± 0.9", "unit": "µM"}, {"measurement": "kcat", "setting": "P. falciparum PNP", "result": "2.6 ± 0.8", "unit": "s⁻¹"}]}, {"molecule": "O=c1ccn([C@@H]2O[C@H](CO)[C@@H](O)[C@H]2O)c(=O)[nH]1", "note": "[uridine]", "values": [{"measurement": "PyPNP activity with substrate", "setting": "P. yoelii PNP; data not shown", "result": "no detectable activity"}]}, {"molecule": "P. falciparum PNP (Plasmodium falciparum 3D7) (protein) MDNLLRHLKISKEQITPVVLVVGDPGRVDKIKVVCDSYVDLAYNREYKSVECHYKGQKFLCVSHGVGSAGCAVCFEELCQNGAKVIIRAGSCGSLQPDLIKRGDICICNAAVREDRVSHLLIHGDFPAVGDFDVYDTLNKCAQELNVPVFNGISVSSDMYYPNKIIPSRLEDYSKANAAVVEMELATLMVIGTLRKVKTGGILIVDGCPFKWDEGDFDNNLVPHQLENMIKIALGACAKLATKYA", "values": [{"measurement": "Km", "setting": "[1]", "result": "9.4 ± 1.2", "unit": "µM"}, {"measurement": "kcat", "setting": "[1]", "result": "2.6 ± 0.5", "unit": "s⁻¹"}, {"measurement": "kcat/Km", "setting": "[1]", "result": 280000, "unit": "M⁻¹ s⁻¹"}, {"measurement": "Km", "setting": "[2]", "result": "91 ± 35", "unit": "µM"}, {"measurement": "kcat", "setting": "[2]", "result": "0.9 ± 0.3", "unit": "s⁻¹"}, {"measurement": "kcat/Km", "setting": "[2]", "result": 9800, "unit": "M⁻¹ s⁻¹"}, {"measurement": "Km", "setting": "[3]", "result": "4.7 ± 0.9", "unit": "µM"}, {"measurement": "kcat", "setting": "[3]", "result": "1.1 ± 0.2", "unit": "s⁻¹"}, {"measurement": "kcat/Km", "setting": "[3]", "result": 230000, "unit": "M⁻¹ s⁻¹"}]}]}
